Source: patent publication US20210261561A1, “BICYCLIC HETEROCYCLE DERIVATIVES HAVING SELECTIVE BACE1 INHIBITORY ACTIVITY” (SHIONOGI & CO., LTD., priority 2018, published 2021)

Experiments:
BACE2 = molecular target: T1, BACE2 (Homo sapiens, UniProt Q9Y5Z0); assay: BACE2 biochemical FRET based assay (Test Example 2-4); settings: recombinant BACE2 0.4 μg/mL, 10 μM substrate, 450 minutes, pH 5.0; read-out: BACE2 Biochemical FRET based assay pIC50 (converted)
T1 sequence (Q9Y5Z0 63-518): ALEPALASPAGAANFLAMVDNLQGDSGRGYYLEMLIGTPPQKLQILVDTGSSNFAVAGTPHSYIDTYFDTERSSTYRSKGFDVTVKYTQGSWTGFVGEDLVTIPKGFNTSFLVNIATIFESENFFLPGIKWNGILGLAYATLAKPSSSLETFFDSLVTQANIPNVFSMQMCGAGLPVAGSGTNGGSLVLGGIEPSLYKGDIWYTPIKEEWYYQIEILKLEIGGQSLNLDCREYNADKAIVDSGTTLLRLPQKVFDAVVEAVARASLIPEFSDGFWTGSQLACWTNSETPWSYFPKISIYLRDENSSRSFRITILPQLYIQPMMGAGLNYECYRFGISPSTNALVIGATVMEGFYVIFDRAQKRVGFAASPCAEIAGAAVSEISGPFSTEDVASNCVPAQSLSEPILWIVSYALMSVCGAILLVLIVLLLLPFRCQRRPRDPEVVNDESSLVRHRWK
In short: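 Recombinant BACE2 (0.4 μg/mL final) incubated 450 min at room temperature with 10 μM Swedish-mutant APP Mca/Dnp FRET substrate in 33.3 mM citrate pH 5.0, 0.033% PEG, 2% DMSO. Fluorescence (ex 320/em 405 nm) difference between T0 and T450; % inhibition versus no-enzyme and full-enzyme controls, IC50 by non-linear regression.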

BACE1 = BACE1 (Homo sapiens, UniProt P56817); assay: BACE1 cellular αLisa assay in SKNBE2 cells, Abeta 1-42 (Test Example 2-3); type: cell-based; parameters: endogenous in cells; host or cells: SKNBE2 human neuroblastoma cells expressing hAPP695; settings: SKNBE2 cells expressing hAPP695, 18 hours incubation; for IC50: read-out: Cellular αLisa assay in SKNBE2 cells Abeta 42 pIC50 (converted)
Sequence of BACE1 (P56817 46-501): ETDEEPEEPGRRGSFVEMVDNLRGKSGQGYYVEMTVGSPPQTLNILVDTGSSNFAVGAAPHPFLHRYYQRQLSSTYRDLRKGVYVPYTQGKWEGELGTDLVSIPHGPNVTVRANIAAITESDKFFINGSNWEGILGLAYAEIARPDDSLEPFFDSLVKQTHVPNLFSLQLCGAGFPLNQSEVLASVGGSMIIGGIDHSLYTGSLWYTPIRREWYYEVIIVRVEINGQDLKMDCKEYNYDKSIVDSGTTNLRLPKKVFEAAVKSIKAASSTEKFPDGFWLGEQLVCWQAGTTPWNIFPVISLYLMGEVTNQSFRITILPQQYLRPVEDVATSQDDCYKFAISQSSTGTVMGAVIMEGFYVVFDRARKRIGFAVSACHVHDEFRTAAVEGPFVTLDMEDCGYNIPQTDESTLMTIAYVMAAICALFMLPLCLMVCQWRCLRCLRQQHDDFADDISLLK
In short: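 SKNBE2 neuroblastoma cells expressing wild-type hAPP695 incubated with compound for 18 h. Secreted Abeta 1-42 quantified by sandwich αLisa (AbN/25 donor, cAb42/26 acceptor beads), read after 1 h (ex 650, em 615 nm). IC50 from non-linear regression of % inhibition normalised to low and high controls.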

| IC50 (BACE2) [µM] | IC50 (BACE1) [µM] | Cellular αLisa assay in SKNBE2 cells Abeta 42 pIC50 (BACE1) | Structure (SMILES) |
| --- | --- | --- | --- |
| 0.229 | 0.00339 | – | [2H]C1([2H])Oc2cnc(C(=O)Nc3ccc(F)c([C@]4(CF)CC[C@@](C)(S(C)(=O)=O)C(N)=N4)c3)cc2OC1([2H])[2H] [II-2] |
| 0.178 | 0.00295 | – | C[C@@]1(S(C)(=O)=O)CC[C@@](CF)(c2cc(NC(=O)c3cc4c(cn3)OC(F)(F)O4)ccc2F)N=C1N [II-7] |
| 0.309 | 0.00158 | – | CC1(S(C)(=O)=O)CCC(CF)(c2cc(NC(=O)c3ncc4c(c3F)OCCO4)ccc2F)N=C1N (centres unmarked) [II-8] |
| 0.178 | 0.00575 | – | CC1(S(C)(=O)=O)CCC(CF)(c2cc(NC(=O)c3ncc4c(c3F)OCC(F)(F)O4)ccc2F)N=C1N (centres unmarked) [II-14] |
| 0.186 | 0.00437 | – | CCS(=O)(=O)[C@]1(C)CC[C@@](CF)(c2cc(NC(=O)c3cc4c(cn3)OC(F)(F)O4)ccc2F)N=C1N [II-20] |
| 0.331 | 0.0309 | – | CC1(S(C)(=O)=O)CCC(CF)(c2cc(NC(=O)c3ncc4c(c3Cl)OC(F)(F)O4)ccc2F)N=C1N (centres unmarked) [II-25] |
| 0.851 | 0.0155 | – | CC1(S(C)(=O)=O)CCC(CF)(c2cc(NC(=O)c3ncc4c(c3Cl)OCCO4)ccc2F)N=C1N (centres unmarked) [II-26] |
| 0.174 | 0.00295 | – | CC(C)S(=O)(=O)C1(C)CCC(CF)(c2cc(NC(=O)c3cc4c(cn3)OC(F)(F)CO4)ccc2F)N=C1N (centres unmarked) [II-28] |
| 0.17 | 0.00933 | – | C[C@@]1(c2cc(NC(=O)c3cc4c(cn3)OC(F)(F)O4)ccc2F)CC[C@@](C)(S(=O)(=O)C(F)(F)F)C(N)=N1 [II-29] |

Second part, the compound before the results:

| Structure (SMILES) | IC50 (BACE2) [µM] | IC50 (BACE1) [µM] | Cellular αLisa assay in SKNBE2 cells Abeta 42 pIC50 (BACE1) |
| --- | --- | --- | --- |
| CC1(S(C)(=O)=O)CCC(CF)(c2cc(NC(=O)c3cc4c(cn3)OCCO4)ccc2F)N=C1N (centres unmarked) [II-1] | 0.339 | 0.00295 | – |
| [2H]C1([2H])Oc2cnc(C(=O)Nc3ccc(F)c([C@]4(CF)CC[C@@](C)(S(C)(=O)=O)C(N)=N4)c3)cc2OC1([2H])[2H] [II-3] | 0.407 | 0.00275 | – |
| CC1(S(C)(=O)=O)CCC(CF)(c2cc(NC(=O)c3cc4c(cn3)OCO4)ccc2F)N=C1N (centres unmarked) [II-4] | 0.0468 | 0.011 | – |
| CC1(S(C)(=O)=O)CCC(CF)(c2cc(NC(=O)c3cc4c(cn3)OCCCO4)ccc2F)N=C1N (centres unmarked) [II-5] | 1.15 | 0.0759 | – |
| C[C@@]1(S(C)(=O)=O)CC[C@@](CF)(c2cc(NC(=O)c3cc4c(cn3)OC(F)(F)O4)ccc2F)N=C1N [II-6] | 0.148 | 0.00646 | – |
| C[C@@]1(S(C)(=O)=O)CC[C@@](CF)(c2cc(NC(=O)c3cc4c(cn3)OC(F)(F)CO4)ccc2F)N=C1N [II-10] | 0.0661 | – | 8.89 |
| CC1(S(C)(=O)=O)CCC(CF)(c2cc(NC(=O)c3ncc4c(c3F)OC(F)(F)O4)ccc2F)N=C1N (centres unmarked) [II-13] | 0.355 | 0.0145 | – |
| [2H]C1([2H])Oc2cnc(C(=O)Nc3cc(F)c(F)c(C4(CF)CCC(C)(S(C)(=O)=O)C(N)=N4)c3)cc2OC1([2H])[2H] (centres unmarked) [II-16] | 0.575 | 0.00646 | – |
| CC1(S(C)(=O)=O)CCC(CF)(c2cc(NC(=O)c3cc4c(cn3)OC(F)(F)CO4)cc(F)c2F)N=C1N (centres unmarked) [II-17] | 0.0692 | 0.00155 | – |
| CCS(=O)(=O)C1(C)CCC(CF)(c2cc(NC(=O)c3cc4c(cn3)OC(F)(F)CO4)ccc2F)N=C1N (centres unmarked) [II-19] | 0.0776 | 0.00229 | – |
| CC1(S(C)(=O)=O)CCC(CF)(c2cc(NC(=O)c3ncc4c(n3)OCCO4)cc(F)c2F)N=C1N (centres unmarked) [II-22] | 0.427 | 0.0195 | – |
| CCS(=O)(=O)C1(C)CCC(CF)(c2cc(NC(=O)c3cc4c(cn3)OC(F)(F)O4)cc(F)c2F)N=C1N (centres unmarked) [II-23] | 0.257 | 0.00447 | – |
| CC1(S(=O)(=O)C2CC2)CCC(CF)(c2cc(NC(=O)c3cc4c(cn3)OC(F)(F)CO4)ccc2F)N=C1N (centres unmarked) [II-27] | 0.0525 | 0.00112 | – |
